Measurements taken from US20160281133A1, “STABILIZATION AND ISOLATION OF EXTRACELLULAR NUCLEIC ACIDS” (QIAGEN GMBH, priority 2013, published 2016).
Where a name gives a salt, the structure may show the parent alone. Read-outs that look alike come from different tables or passages of the source. Where a SMILES comes first, the peptide text is derived from it. [ ]: non-standard residue; d: D form. Nle = CCCC[CH](N)C(=O)O

Experiments:
pancreatic duct cells = details: cited from earlier work
Bax-mediated apoptosis = details: functions as effectively as Caspase Inhibitor VI (Z-VAD-FMK); cited from earlier work
whole blood samples [1] = test: DNA size distribution by chip gel electrophoresis (blood cell stability/DNA release); type: cell-based, human; details: 20 μM in 10 ml K2E blood; day 3 and day 7
Protocol: To separate the blood plasma from the whole blood, the blood samples were centrifuged for 15 min at 5000 rpm, and the obtained plasma samples were again centrifuged for 10 min at 16.000×g at 4° C.
The circulating, extracellular nucleic acids were purified from the obtained plasma samples using the QIAamp® Circulating NA Kit (QIAGEN, according to the handbook). In brief: • 10 ml sample input; • lysis: 1 ml Proteinase K and 8 ml Buffer ACL (QIAGEN) • binding: 18 ml Buffer ACB (QIAGEN) • wash-steps: unchanged and according to handbook • elution in 60 μl Buffer AVE (QIAGEN)
1.3.1 Measurement of the blood cell stability/DNA release by the determination of DNA size distribution using a chip gel electrophoresis (2100 Bioanalyzer; Agilent Technologies; Inc., USA) according to manufacturer's instruction (see handbook Agilent DNA 7500 and DNA 12000 Kit Guide), but 1.5 μl instead of 1 μl sample were transferred to the wells.
Each tested caspase inhibitor was added to whole blood samples (20 μM end concentration in 10 ml blood; blood was collected into Vacutainer K2E Tubes; BD). The whole blood sample was processed as described in section 1 (plasma preparation and nucleic acid isolation).
The eluted circulating cell-free DNA was separated by size using chip gel electrophoresis (for details on the method see above). […]

whole blood samples [2] = test: 18S DNA duplex real time PCR assay, increase of DNA in plasma of stored blood, example 5; type: cell-based, human; details: 20 μM caspase inhibitor in whole blood; storage at RT
cells = details: even at extremely high concentrations; cited from earlier work
[3] = biological target: T1, Omi/HtrA2 (His-Omi134-458) (Homo sapiens, UniProt O43464); details: for His-Omi134-458; cited from earlier work
T1 construct: His-Omi134-458; His (N)
T1 sequence (O43464 134-458): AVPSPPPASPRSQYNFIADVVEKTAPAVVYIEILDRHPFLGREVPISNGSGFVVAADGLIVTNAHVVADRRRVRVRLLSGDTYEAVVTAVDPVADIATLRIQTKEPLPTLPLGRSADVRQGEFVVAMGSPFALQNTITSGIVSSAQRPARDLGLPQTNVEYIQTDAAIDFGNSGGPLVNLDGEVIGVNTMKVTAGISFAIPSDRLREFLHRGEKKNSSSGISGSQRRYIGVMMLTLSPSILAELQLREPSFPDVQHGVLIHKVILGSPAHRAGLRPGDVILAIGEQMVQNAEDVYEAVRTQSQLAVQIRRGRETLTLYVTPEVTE

[4] = system: various other serine proteases; details: cited from earlier work
COX-1 = COX-1 (Homo sapiens, UniProt P23219); details: cited from earlier work
COX-1, sequence (P23219 24-599): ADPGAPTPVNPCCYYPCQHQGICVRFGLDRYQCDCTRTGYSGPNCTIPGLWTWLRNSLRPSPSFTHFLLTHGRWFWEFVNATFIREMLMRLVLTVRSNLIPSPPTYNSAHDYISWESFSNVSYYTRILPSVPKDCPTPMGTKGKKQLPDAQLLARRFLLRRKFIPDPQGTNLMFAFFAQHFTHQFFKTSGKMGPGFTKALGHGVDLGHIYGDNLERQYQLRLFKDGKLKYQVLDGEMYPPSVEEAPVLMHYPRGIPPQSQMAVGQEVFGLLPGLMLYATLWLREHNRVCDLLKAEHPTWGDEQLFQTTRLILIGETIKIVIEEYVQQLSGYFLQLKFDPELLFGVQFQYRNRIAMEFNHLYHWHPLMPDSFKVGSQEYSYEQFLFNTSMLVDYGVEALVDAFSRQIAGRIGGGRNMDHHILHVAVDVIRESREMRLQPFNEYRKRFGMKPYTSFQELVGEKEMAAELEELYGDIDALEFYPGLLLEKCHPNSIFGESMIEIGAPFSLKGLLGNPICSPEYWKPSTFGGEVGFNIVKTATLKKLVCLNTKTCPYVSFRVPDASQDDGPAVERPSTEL

COX-2 = details: cited from earlier work
HeLa cell mitochondria = details: at 5 μM; cited from earlier work
myocardial infarct size = details: during reperfusion; cited from earlier work
caspase-3 = biological target: T2, caspase-3 (Homo sapiens, UniProt P42574); details: cited from earlier work
T2 sequence (P42574 29-175 limits assumed): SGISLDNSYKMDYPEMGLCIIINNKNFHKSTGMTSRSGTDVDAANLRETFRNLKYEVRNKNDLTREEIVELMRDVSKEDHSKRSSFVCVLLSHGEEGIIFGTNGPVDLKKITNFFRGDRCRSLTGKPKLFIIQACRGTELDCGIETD
T2 sequence (P42574 176-277 limits assumed): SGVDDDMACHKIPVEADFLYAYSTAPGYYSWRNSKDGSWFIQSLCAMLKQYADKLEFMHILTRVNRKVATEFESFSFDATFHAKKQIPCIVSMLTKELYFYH

caspase-7 = biological target: T3, caspase-7 (Homo sapiens, UniProt P55210); details: cited from earlier work
T3 sequence (P55210 24-198 limits assumed): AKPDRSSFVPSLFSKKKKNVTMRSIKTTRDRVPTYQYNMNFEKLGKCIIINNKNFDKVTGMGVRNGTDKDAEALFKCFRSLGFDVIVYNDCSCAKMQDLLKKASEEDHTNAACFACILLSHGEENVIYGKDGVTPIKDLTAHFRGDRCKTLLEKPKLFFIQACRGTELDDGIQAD
T3 sequence (P55210 207-303 limits assumed): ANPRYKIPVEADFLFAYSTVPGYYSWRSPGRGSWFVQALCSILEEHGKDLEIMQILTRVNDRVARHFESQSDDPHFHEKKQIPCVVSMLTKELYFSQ

caspase-2 = biological target: T4, caspase-2 (Homo sapiens, UniProt P42575); details: cited from earlier work
T4 sequence (P42575 170-325 limits assumed): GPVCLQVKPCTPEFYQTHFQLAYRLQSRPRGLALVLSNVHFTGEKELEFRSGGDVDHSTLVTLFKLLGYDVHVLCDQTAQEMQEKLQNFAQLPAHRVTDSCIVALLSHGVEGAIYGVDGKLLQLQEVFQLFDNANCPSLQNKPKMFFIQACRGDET
T4 sequence (P42575 348-452 limits assumed): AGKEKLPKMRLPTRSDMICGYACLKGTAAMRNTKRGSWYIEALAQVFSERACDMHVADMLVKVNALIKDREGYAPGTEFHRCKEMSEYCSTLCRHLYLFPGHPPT

[5] = biological target: N-SMase (neutral sphingomyelinase); details: rat brain; cited from earlier work
MCF7 breast cancer cells = details: at 20 μM; cited from earlier work
calpain I = calpain I (Homo sapiens, UniProt P07384); details: cited from earlier work
calpain I, sequence (P07384 whole entry, one chain of several): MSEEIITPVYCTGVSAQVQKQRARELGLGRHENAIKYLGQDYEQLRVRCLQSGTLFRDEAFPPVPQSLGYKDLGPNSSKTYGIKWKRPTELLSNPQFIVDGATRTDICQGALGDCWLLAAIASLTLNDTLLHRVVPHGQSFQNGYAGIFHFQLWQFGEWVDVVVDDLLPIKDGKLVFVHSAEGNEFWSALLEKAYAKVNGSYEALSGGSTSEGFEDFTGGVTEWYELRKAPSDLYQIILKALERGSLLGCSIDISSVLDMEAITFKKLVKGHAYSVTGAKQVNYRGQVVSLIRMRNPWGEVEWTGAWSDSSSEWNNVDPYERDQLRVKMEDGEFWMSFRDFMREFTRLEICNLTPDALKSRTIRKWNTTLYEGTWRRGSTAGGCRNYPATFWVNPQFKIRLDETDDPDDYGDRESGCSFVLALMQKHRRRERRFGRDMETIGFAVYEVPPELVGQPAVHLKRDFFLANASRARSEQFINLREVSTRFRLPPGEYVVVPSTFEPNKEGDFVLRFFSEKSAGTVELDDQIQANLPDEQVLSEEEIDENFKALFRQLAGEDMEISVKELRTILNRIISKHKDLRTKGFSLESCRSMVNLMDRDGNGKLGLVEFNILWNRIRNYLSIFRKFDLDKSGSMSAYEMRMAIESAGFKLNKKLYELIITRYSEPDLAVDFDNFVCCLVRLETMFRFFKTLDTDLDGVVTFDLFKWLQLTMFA

calpain II = biological target: T5, calpain II (Homo sapiens, UniProt P17655); details: cited from earlier work
T5 sequence (P17655 1-700): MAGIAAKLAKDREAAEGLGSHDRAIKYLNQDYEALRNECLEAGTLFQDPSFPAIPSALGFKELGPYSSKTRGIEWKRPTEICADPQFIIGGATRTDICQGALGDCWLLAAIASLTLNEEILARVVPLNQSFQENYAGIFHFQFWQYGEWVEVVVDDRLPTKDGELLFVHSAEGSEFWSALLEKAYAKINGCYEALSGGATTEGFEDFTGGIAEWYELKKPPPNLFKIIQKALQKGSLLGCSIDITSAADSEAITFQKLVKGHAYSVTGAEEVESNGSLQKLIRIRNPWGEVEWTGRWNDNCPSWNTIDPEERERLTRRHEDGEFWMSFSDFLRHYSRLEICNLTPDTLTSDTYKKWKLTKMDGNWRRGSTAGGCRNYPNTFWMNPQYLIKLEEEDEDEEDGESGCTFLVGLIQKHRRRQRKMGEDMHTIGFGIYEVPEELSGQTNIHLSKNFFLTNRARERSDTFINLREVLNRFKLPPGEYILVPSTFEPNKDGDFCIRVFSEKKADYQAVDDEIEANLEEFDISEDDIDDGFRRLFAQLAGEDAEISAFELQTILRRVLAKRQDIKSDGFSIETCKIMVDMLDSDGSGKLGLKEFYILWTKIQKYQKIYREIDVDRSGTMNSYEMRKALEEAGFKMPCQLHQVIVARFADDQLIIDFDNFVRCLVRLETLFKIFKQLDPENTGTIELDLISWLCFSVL
T5 sequence (P04632 1-268 partner): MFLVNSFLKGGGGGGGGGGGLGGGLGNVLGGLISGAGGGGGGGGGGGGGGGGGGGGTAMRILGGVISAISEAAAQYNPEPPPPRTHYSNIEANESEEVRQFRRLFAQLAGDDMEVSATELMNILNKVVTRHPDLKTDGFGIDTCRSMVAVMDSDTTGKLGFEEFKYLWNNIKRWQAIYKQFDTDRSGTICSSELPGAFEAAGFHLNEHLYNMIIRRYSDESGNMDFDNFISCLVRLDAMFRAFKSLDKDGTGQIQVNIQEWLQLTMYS

cathepsin L = cathepsin L (Homo sapiens, UniProt P07711); details: cited from earlier work
cathepsin L, sequence (P07711 114-333, species assumed): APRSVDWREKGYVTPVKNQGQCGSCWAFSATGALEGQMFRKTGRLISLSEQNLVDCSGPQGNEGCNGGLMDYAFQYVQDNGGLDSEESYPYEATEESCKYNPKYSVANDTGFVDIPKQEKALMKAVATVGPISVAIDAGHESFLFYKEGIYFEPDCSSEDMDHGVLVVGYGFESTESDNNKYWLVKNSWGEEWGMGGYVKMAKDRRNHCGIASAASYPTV

caspase-1 [6] = biological target: T6, caspase-1 (Homo sapiens, UniProt P29466); details: cited from earlier work
T6 sequence (P29466 120-297 limits assumed): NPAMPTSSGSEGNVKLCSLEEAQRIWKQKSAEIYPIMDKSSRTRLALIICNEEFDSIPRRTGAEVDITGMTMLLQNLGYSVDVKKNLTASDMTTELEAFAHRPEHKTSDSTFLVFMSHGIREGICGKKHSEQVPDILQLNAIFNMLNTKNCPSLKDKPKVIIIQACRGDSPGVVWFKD
T6 sequence (P29466 317-404 limits assumed): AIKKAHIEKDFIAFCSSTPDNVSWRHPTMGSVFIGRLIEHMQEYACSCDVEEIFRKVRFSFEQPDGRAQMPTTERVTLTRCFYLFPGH

caspase-8 = caspase-8 (Homo sapiens, UniProt Q14790); details: cited from earlier work
caspase-8, sequence (Q14790 217-374 limits assumed, species assumed): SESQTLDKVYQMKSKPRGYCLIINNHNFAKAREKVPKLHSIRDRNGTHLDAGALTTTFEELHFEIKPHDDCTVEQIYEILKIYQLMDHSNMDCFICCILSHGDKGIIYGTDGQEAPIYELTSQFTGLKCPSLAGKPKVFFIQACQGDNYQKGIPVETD
caspase-8, sequence (Q14790 385-479 limits assumed, species assumed): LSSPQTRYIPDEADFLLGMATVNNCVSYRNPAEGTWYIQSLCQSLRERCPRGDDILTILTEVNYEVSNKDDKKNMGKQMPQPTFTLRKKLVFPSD

anthrax lethal factor = anthrax lethal factor (Bacillus anthracis, UniProt P15917); details: cited from earlier work
anthrax lethal factor, sequence (P15917 34-809 limits assumed): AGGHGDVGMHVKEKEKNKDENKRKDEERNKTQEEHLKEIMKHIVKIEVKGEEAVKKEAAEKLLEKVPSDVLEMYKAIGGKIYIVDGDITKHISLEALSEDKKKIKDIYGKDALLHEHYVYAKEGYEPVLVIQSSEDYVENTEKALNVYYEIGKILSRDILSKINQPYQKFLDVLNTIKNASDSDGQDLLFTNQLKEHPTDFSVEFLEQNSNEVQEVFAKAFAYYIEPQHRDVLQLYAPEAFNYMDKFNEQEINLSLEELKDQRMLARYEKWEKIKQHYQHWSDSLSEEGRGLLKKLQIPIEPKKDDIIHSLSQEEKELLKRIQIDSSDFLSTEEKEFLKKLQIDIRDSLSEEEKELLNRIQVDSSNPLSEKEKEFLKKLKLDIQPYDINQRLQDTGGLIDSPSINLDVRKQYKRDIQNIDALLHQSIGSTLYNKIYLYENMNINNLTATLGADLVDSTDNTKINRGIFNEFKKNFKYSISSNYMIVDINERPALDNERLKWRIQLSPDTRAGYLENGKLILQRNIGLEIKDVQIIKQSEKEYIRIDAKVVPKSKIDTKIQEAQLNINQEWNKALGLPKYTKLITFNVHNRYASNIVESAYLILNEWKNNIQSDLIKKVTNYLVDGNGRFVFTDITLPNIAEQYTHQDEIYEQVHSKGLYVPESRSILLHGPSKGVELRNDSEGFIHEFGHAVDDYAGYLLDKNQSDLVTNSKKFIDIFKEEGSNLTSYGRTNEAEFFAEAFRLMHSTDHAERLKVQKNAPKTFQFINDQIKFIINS

caspase-1 [7] = biological target: T6, caspase-1; details: cited from earlier work; remark: listed apart in the source
caspase-10 = biological target: T7, caspase-10 (Homo sapiens, UniProt Q92851); details: value type not repeated in the cell; cited from earlier work
T7 sequence (Q92851 220-415 limits assumed): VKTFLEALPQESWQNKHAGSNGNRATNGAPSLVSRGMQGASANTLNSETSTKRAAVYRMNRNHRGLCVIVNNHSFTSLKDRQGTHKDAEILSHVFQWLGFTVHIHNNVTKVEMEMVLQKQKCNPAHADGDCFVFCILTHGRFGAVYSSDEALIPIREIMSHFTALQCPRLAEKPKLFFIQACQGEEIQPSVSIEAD
T7 sequence (Q92851 416-521 limits assumed): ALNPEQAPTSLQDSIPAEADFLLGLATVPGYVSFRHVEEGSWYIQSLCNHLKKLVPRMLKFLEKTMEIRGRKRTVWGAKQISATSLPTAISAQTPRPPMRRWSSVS

For CCN1C(=O)C=CC1=O [N-Ethylmaleimide], the IC50 (pancreatic duct cells) is listed as 22000 nM.
For “H-Val-Pro-Met-Leu-Lys-OH (H-VPMLK-OH) [Bax-Inhibiting Peptide, V5]”, the “concentration effective for Bax-mediated apoptosis” value (Bax-mediated apoptosis) is given as “mediated apoptosis (~50-200 μM). Also effectively blocks caspase-”.
For CC(C)C(NC(=O)c1ccc2ccccc2n1)C(=O)NC(CC(=O)O)C(=O)COc1c(F)cccc1F (stereo not drawn) [Q-VD-OPh, Quinoline-Val-Asp-CH2-OPH], the “ladder-like pattern of bands (release and fragmentation of genomic DNA) compared to controls” value (whole blood samples [1]) is given as “significantly reduced ladder-like patterns”, the “increase of DNA from day 0 to day 3 or 7” value (whole blood samples [2]) is given as “reduced increase of DNA” and the toxicity to cells (cells) is given as “not toxic to cells”.
For O=C1C(=Cc2ccc(-c3ccccc3[N+](=O)[O-])o2)C(=O)N(c2ccccc2)C(=S)N1c1ccccc1 [Omi/HtrA2 Protease Inhibitor, Ucf-101], the IC50 [3] is given as 9500 nM and the IC50 [4] is given as no less than 200000 nM.
In the case of O=c1c(O)c(-c2ccc(O)cc2)oc2cc(O)cc(O)c12 [Kaempferol], the IC50 (COX-1) is given as 180000 nM and the IC50 (COX-2) is given as less than 15000 nM.
For OC(CN1CCNCC1)Cn1c2ccc(Br)cc2c2cc(Br)ccc21 (racemic) [Bax Channel Blocker, (±)-1-(3,6-Dibromocarbazol-9-yl)-3-piperazin-1-yl-propan-2-ol, bis TFA], the “inhibition of Bid-induced cytochrome c release” value (HeLa cell mitochondria) is listed as “cyctochrome c release from HeLa cell mitochondria (~80%”.
In the case of “Ac-Leu-Glu-His-Asp-CMK (LEHD; HELM PEPTIDE1{[ac].L.E.H.D.[ClC[*:1]]}$$$$V2.0; SMILES CC(=O)N[C@@H](CC(C)C)C(=O)N[C@@H](CCC(=O)O)C(=O)N[C@@H](Cc1c[nH]cn1)C(=O)N[C@@H](CC(=O)O)C(=O)CCl) [Caspase-9 Inhibitor III]”, the “concentration reported to reduce myocardial infarct size” value (myocardial infarct size) is given as “myocardial infarct size during reperfusion (~70 nM)”.
For “Ac-Val-Asp-Val-Ala-Asp-CHO (Ac-VDVAD-aldehyde) [Caspase Inhibitor VIII]”, the Ki (caspase-3) is given as 1 nM, the Ki (caspase-7) is given as 7.5 nM and the Ki (caspase-2) is given as 3.5 nM.
In the case of O=C(C=Cc1ccc(C=CC(=O)Nc2ccc(C3=NCCN3)cc2)cc1)Nc1ccc(C2=NCCN2)cc1 [GW 4869], the IC50 [5] is given as roughly 1000 nM and the “protection against TNF-α or diamine-induced cell death” value (MCF7 breast cancer cells) is given as “specific PLC. Reported to offer complete protection against TNF-α”.
For CCCCC(C=O)NC(=O)C(CC(C)C)NC(=O)C(CC(C)C)NC(C)=O (stereo not drawn) [Ac-Leu-Leu-Nle-al] (Ac-Leu-Leu-[Nle]-aldehyde; configuration not given here), the Ki (calpain I) is given as 190 nM, the Ki (calpain II) is given as 150 nM and the Ki (cathepsin L) is given as 0.5 nM.
For “Ac-Tyr-Val-Ala-Asp-CHO [Caspase-1 Inhibitor I]”, the Ki (caspase-1 [6]) is given as 0.2 nM.
For FC(F)(F)c1cccc(-c2csc(C3COc4ccccc4O3)n2)c1 (stereo not drawn) [Caspase Inhibitor X], the Ki (caspase-8) is given as 2700 nM and the “effect on activity of anthrax lethal factor” value (anthrax lethal factor) is given as “assisted cleavage of BID, a proapoptotic protein. Weakly affects”.
In the case of “Ac-Ile-Glu-Thr-Asp-CHO (Ac-IETD-aldehyde) [Granzyme B Inhibitor II]”, the Ki (caspase-1 [7]) is listed as less than 6 nM and the Ki (caspase-10) is listed as 27 nM.
